Test results as given in patent publication US8053435B2, “Naphthalenyloxypropenyl derivatives having inhibitory activity against histone deacetylase and pharmaceutical composition comprising the same” (Korea Research Institute of Chemical Technology, priority 2006, dated 2011).
Read-outs that look alike come from different tables or passages of the source.

How the values were obtained:
HDAC = assay: Inhibitory activity against HDAC (BIOMOL Quantizyme Assay system, Fluor de Lys substrate); assay type: biochemical; settings: HeLa nuclear extract as source of HDAC enzymes, enzyme reaction 1 hr
Procedure: HDAC activity was analyzed using BIOMOL Quantizyme™ Assay system which comprised two steps of 1) enzyme reaction between HDAC and a substrate and 2) determination of the level of HDAC inhibitory activity.
(§1) 0.5 μl of HeLa nuclear organic layer (10 μM) (a source of HDAC enzymes) was then added thereto to a final concentration of 100 nM. The enzyme reaction was carried out for 1 hr.
Subsequently, in step 2), 2 μM tricostatin A was added to 50 μl of Flour de Lys™ developer, followed by allowing the mixture to react at room temperature for 15 minutes. The light excited at 355 nm and emitted at 460 nm from the fluorophore was measured with a fluorometric plate reader. The intensity of the fluorescence increases as the enzyme activity is higher. The HDAC inhibitory activity of each of the test compounds was determined and compared with that of the control.
0.5 μl of HeLa nuclear organic layer (10 μM) (a source of HDAC enzymes) was then added thereto to a final concentration of 100 nM, The enzyme reaction was carried out for 1 hr.
as §1, §1

[1] = tested on: colon cancer cells HCT116; assay: Inhibitory activity against proliferation of cancer cells, SRB (Sulforhodamine B) analysis; assay type: cell-based; settings: Homo sapiens, read-out: Inhibitory conc. against cancer cell growth (EC50 μM) HCT116
Procedure: Cancer cells were inoculated into a 96-well microplate at a concentration of 1×10^3˜3×10^3 cells/well and incubated under the condition of 37° C., 5% CO2 for 24 hrs. After the incubation was completed, 0.2, 1, 5, 25, or 100 μM of each of the compounds of Examples was added to the plate, and then the reactant was incubated for 48 hrs. After the substrate was stained with SRB, the anti-cancer activity was determined by comparing the amount of protein in the cells treated with the compound of Examples with that of protein in untreated cells.
Specifically, after the incubation was completed, the culture medium was removed from each well, and the cells were washed 3 times with PBS (pH 7.4). Then, a solution of 50% trichloroacetic acid (TCA) was added to each well in an amount of 50 μl/well at 4° C. for 1 hr to fix them. Then, the microplate was washed 5 times with distilled water and dried in air. […]
50 μl of a staining solution prepared by dissolving 0.4% SRB in 1% acetic acid was added to the wells, and the microplate was kept at room temperature for 1 hr. The well plate was then washed 5 times with 1% acetic acid to remove unbound SRB and dried in air. The stained cells were treated with 150 μl/well of 10 mM Tris-HCl solution (pH 10.5) to elute SRB from the cells, and the absorbance of the cells treated with the compounds of examples at 540 nm was measured, based on the absorbance of an untreated cell. The EC50 value representing inhibition of the cancer cell growth by the extent of 50% was calculated from the measured absorbance, and the results are shown in Table 6.

[2] = Table 3, formula (2) series, read-out: IC50 (HDAC inhibitory concentration)
[3] = HCT-116, Table 4, 48 hrs incubation with compound
[4] = Table 5, formula (3) series, read-out: Inhibitory conc. (IC50, μM/ml)
[5] = HCT-116, Table 6, 48 hrs incubation with compound
[6] = Table 7, formula (4) series, read-out: HDAC Inhibitory conc. (IC50, μM/ml)
[7] = HCT-116, Table 8, 48 hrs incubation with compound

SMILES	IC50 (HDAC; [2])	EC50 [1, 3]	IC50 (HDAC; [4])	EC50 [1, 5]	further results
O=C(CCCC/C=C(\COc1cccc2ccccc12)C(=O)NCc1ccco1)NO [Example 2-11, (E)-N1-(Furan-2-ylmethyl)-N8-hydroxy-2-((naphthalen-1-yloxy)methyl)-2-octenediamide]	0.006 µM	0.6 µM			
CN(C)c1ccc(CNC(=O)/C(=C/CCCCC(=O)NO)COc2cccc3ccccc23)cc1 [Example 2-12, (E)-N1-(4-(Dimethylamino)benzyl)-N8-hydroxy-2-((naphthalen-1-yloxy)methyl)-2-octenediamide]	0.006 µM	0.5 µM			
COCCNC(=O)/C(=C/CCCCC(=O)NO)COc1cccc2ccccc12 [Example 2-13, (E)-N8-Hydroxy-N1-(2-methoxyethyl)-2-((naphthalen-1-yloxy)methyl)-2-octenediamide]	0.024 µM	0.6 µM			
O=C(CCCC/C=C(\COc1cccc2ccccc12)C(=O)NCc1cccs1)NO [Example 2-15, (E)-N8-Hydroxy-2-((naphthalen-1-yloxy)methyl)-N1-(thiophen-2-ylmethyl)-2-octenediamide]	0.008 µM	0.4 µM			
COc1ccc(CCNC(=O)/C(=C/CCCCC(=O)NO)COc2cccc3ccccc23)cc1 [Example 2-16, (E)-N8-Hydroxy-N1-(4-methoxyphenethyl)-2-((naphthalen-1-yloxy)methyl)-2-octenediamide]	0.017 µM	0.7 µM			
O=C(CCCC/C=C(\COc1cccc2ccccc12)C(=O)NC1CCN(C2CCCC2)CC1)NO [Example 2-19, (E)-N1-(1-Cyclopentylpiperidin-4-yl)-N8-hydroxy-2-((naphthalen-1-yloxy)methyl)-2-octenediamide]	0.013 µM	0.8 µM			
O=C(CCCC/C=C(\COc1cccc2ccccc12)C(=O)NC1CCN(Cc2ccccc2)C1)NO (stereo not drawn) [Example 2-20, (E)-N1-(1-Benzylpyrrolidin-3-yl)-N8-hydroxy-2-((naphthalen-1-yloxy)methyl)-2-octenediamide]	0.007 µM	0.9 µM			
CC(C)N1CCC(NC(=O)/C(=C/CCCCC(=O)NO)COc2cccc3ccccc23)C1 (stereo not drawn) [Example 2-21, (E)-N8-Hydroxy-N1-(1-isopropylpyrrolidin-3-yl)-2-((naphthalen-1-yloxy)methyl)-2-octenediamide]	0.012 µM	1 µM			
O=C(CCCC/C=C(\COc1ccc2ccccc2c1)C(=O)NC1CCN(C2CCCCC2)C1)NO (stereo not drawn) [Example 2-25, (E)-N1-(1-Cyclohexylpyrrolidin-3-yl)-N8-hydroxy-2-((naphthalen-2-yloxy)methyl)-2-octenediamide]	0.01 µM	0.5 µM			
O=C(CCCC/C=C(\COc1cccc2ccccc12)C(=O)NC1CCN(C2CC2)C1)NO (stereo not drawn) [Example 2-26, (E)-N1-(1-Cyclopropylpyrrolidin-3-yl)-N8-hydroxy-2-((naphthalen-1-yloxy)methyl)-2-octenediamide]	0.011 µM	< 0.2 µM			
O=C(CCCC/C=C(\COc1cccc2ccccc12)C(=O)NC1CCN(C2CC2)CC1)NO [Example 2-27, (E)-N1-(1-Cyclopropylpiperidin-4-yl)-N8-hydroxy-2-((naphthalen-1-yloxy)methyl)-2-octenediamide]	0.016 µM	0.32 µM			
CCN1CCC(NC(=O)/C(=C/CCCCC(=O)NO)COc2cccc3ccccc23)C1 (stereo not drawn) [Example 2-29, (E)-N1-(1-Ethylpyrrolidin-3-yl)-N8-hydroxy-2-((naphthalen-1-yloxy)methyl)-2-octenediamide]	0.01 µM	0.9 µM			
CC(C)N1CCC(NC(=O)/C(=C/CCCCC(=O)NO)COc2cccc3ccccc23)CC1 [Example 2-30, (E)-N8-Hydroxy-N1-(1-isopropylpiperidin-4-yl)-2-((naphthalen-1-yloxy)methyl)-2-octenediamide]	0.015 µM	0.7 µM			
O=C(CCCC/C=C(/CNCCN1CCOCC1)COc1cccc2ccccc12)NO [Example 3-1, (Z)—N-hydroxy-8-(2-morpholinoethylamino)-7-((naphthalen-1-yloxy)methyl)oct-6-enamide]			0.002 µM	0.2 µM	
COCC(C)NC/C(=C/CCCCC(=O)NO)COc1cccc2ccccc12 (stereo not drawn) [Example 3-2, (Z)—N-Hydroxy-8-(1-methoxypropan-2-ylamino)-7-((naphthalen-1-yloxy)methyl)oct-6-enamide]			0.005 µM	0.2 µM	
O=C(CCCC/C=C(/CNCCCN1CCCC1=O)COc1cccc2ccccc12)NO [Example 3-3, (Z)—N-Hydroxy-8-(naphthalen-1-yloxy)-7-((3-(2-oxopyrrolidin-1-yl)propylamino)methyl)oct-6-enamide]			0.003 µM	0.5 µM	
O=C(CCCC/C=C(/CNCCCn1ccnc1)COc1cccc2ccccc12)NO [Example 3-4, (Z)-8-(3-(1H-Imidazol-1-yl)propylamino)-N-hydroxy-7-((naphthalen-1-yloxy)methyl)oct-6-enamide]			0.003 µM	0.7 µM	
CN(C)CC(C)(C)CNC/C(=C/CCCCC(=O)NO)COc1cccc2ccccc12 [Example 3-7, (Z)-8-(3-(Dimethylamino)-2,2-dimethylpropylamino)-N-hydroxy-7-((naphthalen-1-yloxy)methyl)oct-6-enamide]			0.012 µM	1.2 µM	
O=C(CCCC/C=C(/CNCCN1CCCC1)COc1cccc2ccccc12)NO [Example 3-8, (Z)—N-Hydroxy-8-(naphthalen-1-yloxy)-7-((2-(pyrrolidin-1-yl)ethylamino)methyl)oct-6-enamide]			0.005 µM	0.5 µM	
COCCNC/C(=C/CCCCC(=O)NO)COc1cccc2ccccc12 [Example 3-10, (Z)—N-Hydroxy-8-(2-methoxyethylamino)-7-((naphthalen-1-yloxy)methyl)oct-6-enamide]			0.006 µM	< 0.2 µM	
CC(C)N1CCC(NC/C(=C/CCCCC(=O)NO)COc2cccc3ccccc23)CC1 [Example 3-11, (Z)—N-Hydroxy-8-(1-isopropylpiperidin-4-ylamino)-7-((naphthalen-1-yloxy)methyl)oct-6-enamide]			0.012 µM	1.3 µM	
O=C(CCCC/C=C(/CNCc1cccs1)COc1cccc2ccccc12)NO [Example 3-14, (Z)—N-Hydroxy-8-(naphthalen-1-yloxy)-7-((thiophen-2-ylmethylamino)methyl)oct-6-enamide]			0.002 µM	0.3 µM	
CCN1CCC(NC/C(=C/c2ccc(C(=O)NO)cc2)COc2cccc3ccccc23)CC1 [Example 4-1, (Z)-4-(3-(1-ethylpiperidin-4-ylamino)-2-((naphthalen-1-yloxy)methyl)prop-1-enyl)-N-hydroxybenzamide]					IC50 (HDAC; [6]): 0.014 µM; EC50 [1, 7]: 1.1 µM
CCN1CCC(NC/C(=C/c2ccc(C(=O)NO)cc2)COc2cccc3ccccc23)C1 (stereo not drawn) [Example 4-2, (Z)-4-(3-(1-ethylpyrrolidin-3-ylamino)-2-((naphthalen-1-yloxy)methyl)prop-1-enyl)-N-hydroxybenzamide]					IC50 (HDAC; [6]): 0.017 µM; EC50 [1, 7]: 0.8 µM
O=C(NO)c1ccc(/C=C(/CNC2CCN(C3CCCC3)CC2)COc2cccc3ccccc23)cc1 [Example 4-7, (Z)-4-(3-(1-cyclopentylpiperidin-4-ylamino)-2-((naphthalen-1-yloxy)methyl)prop-1-enyl)-N-hydroxybenzamide]					IC50 (HDAC; [6]): 0.016 µM; EC50 [1, 7]: 10 µM
O=C(NO)c1ccc(/C=C(/CNC2CCN(C3CC3)CC2)COc2cccc3ccccc23)cc1 [Example 4-10, (Z)-4-(3-(1-cyclopropylpiperidin-4-ylamino)-2-((naphthalen-1-yloxy)methyl)prop-1-enyl)-N-hydroxybenzamide]					IC50 (HDAC; [6]): 0.011 µM; EC50 [1, 7]: 0.5 µM
O=C(NO)c1ccc(/C=C(/CNC2CCN(C3CC3)C2)COc2cccc3ccccc23)cc1 (stereo not drawn) [Example 4-11, (Z)-4-(3-(1-cyclopropylpyrrolidin-3-ylamino)-2-((naphthalen-1-yloxy)methyl)prop-1-enyl)-N-hydroxybenzamide]					IC50 (HDAC; [6]): 0.023 µM; EC50 [1, 7]: 1 µM
